Laboratory results reported in patent US20240092790A1, “DIHYDROFUROPYRIDINE DERIVATIVES AS RHO- KINASE INHIBITORS” (CHIESI FARMACEUTICI S.P.A., priority 2020, published 2024).

What was measured:
Format in all cases: biochemical
[1] = target: ROCK1 (Homo sapiens, UniProt Q13464); assay: In vitro inhibitory activity assay ROCK1 (ADP-Glo); details: ATP 200 μM, Cheng-Prusoff; read-out: ROCK 1 (Ki, range of activity)
Experimental: (§1) In Vitro Inhibitory Activity Assay Description ROCK1 and ROCK2
(§2) The effectiveness of compounds of the present invention to inhibit Rho kinase activity can be determined in a 10 μl assay containing 40 mM Tris pH7.5, 20 mM MgCl2 0.1 mg/mL BSA, 50 μM DTT and 2.5 μM peptide substrate (Myelin Basic Protein) using an ADP-Glo kit (Promega). Compounds were dissolved in DMSO such that the final concentration of DMSO was 1% in the assay. All reactions/incubations are performed at 25° C. Compound (2 ul) and either Rho kinase 1 or 2 (4 μl) were mixed and incubated for 30 mins. Reactions were initiated by addition of ATP (4 μl) such that the final concentration of ATP in the assay was 200 μM. After a 1 hour incubation 10 μl of ADP-Glo Reagent was added and after a further 1 hour incubation 20 ul of Kinase Detection Buffer was added and the mixture incubated for a further 45 minutes. The luminescent signal was measured on a luminometer. […] Compounds were tested in dose-response format and the inhibition of kinase activity was calculated at each concentration of compound. To determine the IC50 (concentration of compound required to inhibit 50% of the enzyme activity) data were fit to a plot of % inhibition vs Log 10 compound concentration using a sigmoidal fit with a variable slope and fixing the maximum to 100% and the minimum to 0%. To determine the Ki values the Cheng-Prusoff equation was utilized (Ki=IC50/(1+[S]/Km).

[2] = target: PKA (Homo sapiens, UniProt P17612); assay: In vitro inhibitory activity assay for PKA (ADP-Glo), reported as selectivity ratio vs ROCK2; details: Ki value for PKA divided by Ki value of ROCK2
Experimental: In Vitro Inhibitory Activity Assay Description for PKA
The effectiveness of compounds of the present invention to inhibit PKA activity can be determined in a 10 μl assay containing 40 mM Tris pH7.5, 20 mM MgCl2 0.1 mg/ml BSA, 50 μM DTT and 260 μM peptide substrate (kemptide) using an ADP-Glo kit (Promega). Compounds were dissolved in DMSO such that the final concentration of DMSO was 1% in the assay. All reactions/incubations are performed at 25° C. Compound and PKA enzyme (6 μl) were mixed and incubated for 30 mins. Reactions were initiated by addition of ATP (4 μl) such that the final concentration of ATP in the assay was 10 μM. After a 30 minute incubation 10p of ADP-Glo Reagent was added and after a further 1 hour incubation 20 μl of Kinase Detection Buffer was added and the mixture incubated for a further 45 minutes. The luminescent signal was measured on a luminometer. […] Compounds were tested in dose-response format and the inhibition of kinase activity was calculated at each concentration of compound. To determine the IC50 (concentration of compound required to inhibit 50% of the enzyme activity) data were fit to a plot of % inhibition vs Log10 compound concentration using a sigmoidal fit with a variable slope and fixing the maximum to 100% and the minimum to 0%. To determine the Ki values the Cheng-Prusoff equation was utilized (Ki=IC50/(1+[S]/Km).
In vitro inhibitory activities for PKA were reported as selectivity ratio vs. ROCK-2.

[3] = target: ROCK2 (Homo sapiens, UniProt O75116); assay: In vitro inhibitory activity assay ROCK2 (ADP-Glo); details: ATP 200 μM, Cheng-Prusoff; read-out: ROCK2 (Ki, range of activity)
Sequence of ROCK2 (O75116 whole entry): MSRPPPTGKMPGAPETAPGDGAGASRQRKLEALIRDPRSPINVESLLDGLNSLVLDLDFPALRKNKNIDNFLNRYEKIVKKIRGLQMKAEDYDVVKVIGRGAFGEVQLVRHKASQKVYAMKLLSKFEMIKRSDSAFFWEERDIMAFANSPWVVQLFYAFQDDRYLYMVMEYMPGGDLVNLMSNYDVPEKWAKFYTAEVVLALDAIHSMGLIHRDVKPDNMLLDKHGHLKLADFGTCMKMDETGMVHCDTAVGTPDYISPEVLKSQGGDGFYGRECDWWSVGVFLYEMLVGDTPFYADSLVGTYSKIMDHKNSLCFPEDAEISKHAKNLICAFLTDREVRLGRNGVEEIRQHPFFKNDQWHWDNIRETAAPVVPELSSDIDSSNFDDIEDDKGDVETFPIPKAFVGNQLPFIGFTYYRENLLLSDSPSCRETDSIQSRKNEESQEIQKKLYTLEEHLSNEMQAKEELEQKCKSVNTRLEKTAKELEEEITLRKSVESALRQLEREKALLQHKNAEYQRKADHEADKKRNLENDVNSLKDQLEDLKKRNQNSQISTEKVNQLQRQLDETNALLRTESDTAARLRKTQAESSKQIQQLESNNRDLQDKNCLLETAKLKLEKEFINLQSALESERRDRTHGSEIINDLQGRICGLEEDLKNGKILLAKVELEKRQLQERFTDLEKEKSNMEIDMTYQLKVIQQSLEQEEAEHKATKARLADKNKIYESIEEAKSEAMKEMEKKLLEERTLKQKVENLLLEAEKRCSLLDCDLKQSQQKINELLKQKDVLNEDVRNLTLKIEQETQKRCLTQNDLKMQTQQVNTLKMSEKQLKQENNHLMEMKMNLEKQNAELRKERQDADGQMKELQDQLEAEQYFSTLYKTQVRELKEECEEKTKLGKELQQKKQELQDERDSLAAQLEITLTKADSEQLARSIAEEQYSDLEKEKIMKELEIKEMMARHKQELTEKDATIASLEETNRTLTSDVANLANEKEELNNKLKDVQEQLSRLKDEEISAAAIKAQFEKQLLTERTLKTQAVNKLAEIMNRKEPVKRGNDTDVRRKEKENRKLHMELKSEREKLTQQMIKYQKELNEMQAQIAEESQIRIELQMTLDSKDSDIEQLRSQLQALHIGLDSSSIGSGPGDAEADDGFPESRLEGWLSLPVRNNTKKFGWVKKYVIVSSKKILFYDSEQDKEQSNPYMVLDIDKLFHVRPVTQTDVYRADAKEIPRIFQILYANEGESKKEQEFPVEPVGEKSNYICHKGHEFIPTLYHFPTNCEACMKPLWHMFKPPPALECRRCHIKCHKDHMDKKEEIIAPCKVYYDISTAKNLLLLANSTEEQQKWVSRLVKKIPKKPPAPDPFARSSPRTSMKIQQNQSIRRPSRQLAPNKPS
Experimental: as §1, §2

Sequence of ROCK1 (Q13464 whole entry): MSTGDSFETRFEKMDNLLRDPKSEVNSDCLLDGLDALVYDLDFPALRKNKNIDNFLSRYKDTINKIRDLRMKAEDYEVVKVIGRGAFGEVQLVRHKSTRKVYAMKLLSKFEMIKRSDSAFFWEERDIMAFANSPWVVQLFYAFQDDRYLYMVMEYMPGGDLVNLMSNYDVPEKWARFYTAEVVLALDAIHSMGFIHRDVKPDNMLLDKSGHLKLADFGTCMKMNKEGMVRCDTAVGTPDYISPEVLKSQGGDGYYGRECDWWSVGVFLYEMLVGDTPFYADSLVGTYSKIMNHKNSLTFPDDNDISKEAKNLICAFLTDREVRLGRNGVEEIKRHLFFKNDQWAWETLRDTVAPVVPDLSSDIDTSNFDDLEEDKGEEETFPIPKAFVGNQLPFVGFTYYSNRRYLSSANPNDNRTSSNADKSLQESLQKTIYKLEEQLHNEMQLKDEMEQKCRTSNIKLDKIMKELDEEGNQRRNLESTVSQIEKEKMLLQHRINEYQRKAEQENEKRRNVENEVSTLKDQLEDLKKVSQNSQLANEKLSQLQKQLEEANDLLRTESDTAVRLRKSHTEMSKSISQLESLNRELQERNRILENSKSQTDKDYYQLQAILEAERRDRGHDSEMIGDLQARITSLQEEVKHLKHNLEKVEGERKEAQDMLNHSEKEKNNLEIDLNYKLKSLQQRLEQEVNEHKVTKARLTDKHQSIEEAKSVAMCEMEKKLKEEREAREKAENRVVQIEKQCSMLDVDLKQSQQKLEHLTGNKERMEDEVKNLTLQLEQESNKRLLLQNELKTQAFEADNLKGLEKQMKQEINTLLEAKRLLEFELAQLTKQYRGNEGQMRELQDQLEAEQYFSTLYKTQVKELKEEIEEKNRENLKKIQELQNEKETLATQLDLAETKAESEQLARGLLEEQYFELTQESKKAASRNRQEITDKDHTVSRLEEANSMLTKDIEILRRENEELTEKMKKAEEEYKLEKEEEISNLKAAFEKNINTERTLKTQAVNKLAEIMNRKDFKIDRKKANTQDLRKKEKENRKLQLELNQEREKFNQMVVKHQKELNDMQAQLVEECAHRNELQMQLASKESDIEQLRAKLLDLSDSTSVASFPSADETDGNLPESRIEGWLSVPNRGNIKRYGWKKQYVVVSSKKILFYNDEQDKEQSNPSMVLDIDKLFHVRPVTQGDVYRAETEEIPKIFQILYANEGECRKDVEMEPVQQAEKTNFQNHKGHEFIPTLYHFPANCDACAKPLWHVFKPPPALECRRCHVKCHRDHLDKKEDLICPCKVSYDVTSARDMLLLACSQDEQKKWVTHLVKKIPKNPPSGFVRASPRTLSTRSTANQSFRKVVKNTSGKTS

| Compound | Ki [1] [nM] | Ratio (PKA/ROCK2) [2] | Ki [3] [nM] |
| --- | --- | --- | --- |
| CNC(=O)c1cccc(CNc2ncc(-c3ccnc(N)n3)c3c2CCO3)n1 [Example 63, 6-(((7-(2-Aminopyrimidin-4-yl)-2,3-dihydrofuro[3,2-c]pyridin-4-yl)amino)methyl)-N-methylpicolinamide] | > 30 | *** (ratio≥10) | 3 to 30 |
| CN1CCC(NC(=O)c2cccc(CNc3ncc(-c4ccnc(N)n4)c4c3CCO4)c2)CC1 [Example 13, 3-(((7-(2-Aminopyrimidin-4-yl)-2,3-dihydrofuro[3,2-c]pyridin-4-yl)amino)methyl)-N-(1-methylpiperidin-4-yl)benzamide] | ≤ 3 | *** (ratio≥10) | ≤ 3 |
| CC(C)OCCCNC(=O)c1cccc(CNc2ncc(-c3ccnc(N)n3)c3c2CCO3)c1 [Example 15, 3-(((7-(2-Aminopyrimidin-4-yl)-2,3-dihydrofuro[3,2-c]pyridin-4-yl)amino)methyl)-N-(3-isopropoxypropyl)benzamide] | ≤ 3 | *** (ratio≥10) | ≤ 3 |
| Nc1nccc(-c2cnc(NCc3cc(C(=O)NC4CCOCC4)ccc3F)c3c2OCC3)n1 [Example 61, 3-(((7-(2-Aminopyrimidin-4-yl)-2,3-dihydrofuro[3,2-c]pyridin-4-yl)amino)methyl)-4-fluoro-N-(tetrahydro-2H-pyran-4-yl)benzamide] | > 30 | *** (ratio≥10) | 3 to 30 |
| Nc1nccc(-c2cnc(NCc3cccc(C(=O)NC[C@H]4CCCO4)c3)c3c2OCC3)n1 [Example 42, (R)-3-(((7-(2-Aminopyrimidin-4-yl)-2,3-dihydrofuro[3,2-c]pyridin-4-yl)amino)methyl)-N-((tetrahydrofuran-2-yl)methyl)benzamide] | ≤ 3 | *** (ratio≥10) | ≤ 3 |
| Nc1nccc(-c2cnc(NCc3cccc(C(=O)N[C@H]4C[C@H]4F)c3)c3c2OCC3)n1 [Example 47, 3-(((7-(2-Aminopyrimidin-4-yl)-2,3-dihydrofuro[3,2-c]pyridin-4-yl)amino)methyl)-N-((1S,2R)-2-fluorocyclopropyl)benzamide] | ≤ 3 | *** (ratio≥10) | ≤ 3 |
| CC(C)(O)CNC(=O)c1cccc(CNc2ncc(-c3ccnc(N)n3)c3c2CCO3)c1 [Example 17, 3-(((7-(2-Aminopyrimidin-4-yl)-2,3-dihydrofuro[3,2-c]pyridin-4-yl)amino)methyl)-N-(2-hydroxy-2-methylpropyl)benzamide] | ≤ 3 | *** (ratio≥10) | ≤ 3 |
| COCCCNC(=O)c1cccc(CNc2ncc(-c3ccnc(N)n3)c3c2CCO3)c1F [Example 55, 3-(((7-(2-Aminopyrimidin-4-yl)-2,3-dihydrofuro[3,2-c]pyridin-4-yl)amino)methyl)-2-fluoro-N-(3-methoxypropyl)benzamide] | 3 to 30 | *** (ratio≥10) | ≤ 3 |
| CC(C)(F)CNC(=O)c1cccc(CNc2ncc(-c3ccnc(N)n3)c3c2CCO3)c1 [Example 31, 3-(((7-(2-Aminopyrimidin-4-yl)-2,3-dihydrofuro[3,2-c]pyridin-4-yl)amino)methyl)-N-(2-fluoro-2-methylpropyl)benzamide] | ≤ 3 | *** (ratio≥10) | ≤ 3 |
| COCC1(CNC(=O)c2cccc(CNc3ncc(-c4ccnc(N)n4)c4c3CCO4)c2)CC1 [Example 28, 3-(((7-(2-Aminopyrimidin-4-yl)-2,3-dihydrofuro[3,2-c]pyridin-4-yl)amino)methyl)-N-((1-(methoxymethyl)cyclopropyl)methyl)benzamide] | 3 to 30 | *** (ratio≥10) | ≤ 3 |
| CO[C@H]1C[C@H](CNC(=O)c2cccc(CNc3ncc(-c4ccnc(N)n4)c4c3CCO4)c2)C1 [Example 39, 3-(((7-(2-Aminopyrimidin-4-yl)-2,3-dihydrofuro[3,2-c]pyridin-4-yl)amino)methyl)-N-(((1R,3R)-3-methoxycyclobutyl)methyl)benzamide] | ≤ 3 | *** (ratio≥10) | ≤ 3 |
| Nc1nccc(-c2cnc(NCc3cccc(C(=O)NC4CCOCC4)c3)c3c2OCC3)n1 [Example 7, 3-(((7-(2-Aminopyrimidin-4-yl)-2,3-dihydrofuro[3,2-c]pyridin-4-yl)amino)methyl)-N-(tetrahydro-2H-pyran-4-yl)benzamide] | ≤ 3 | *** (ratio≥10) | ≤ 3 |
| COC(C)(C)CNC(=O)c1cccc(CNc2ncc(-c3ccnc(N)n3)c3c2CCO3)c1 [Example 27, 3-(((7-(2-Aminopyrimidin-4-yl)-2,3-dihydrofuro[3,2-c]pyridin-4-yl)amino)methyl)-N-(2-methoxy-2-methylpropyl)benzamide] | ≤ 3 | *** (ratio≥10) | ≤ 3 |
| Nc1nccc(-c2cnc(NCc3cccc(C(=O)NC[C@@H]4CCCO4)c3)c3c2OCC3)n1 [Example 43, (S)-3-(((7-(2-Aminopyrimidin-4-yl)-2,3-dihydrofuro[3,2-c]pyridin-4-yl)amino)methyl)-N-((tetrahydrofuran-2-yl)methyl)benzamide] | ≤ 3 | *** (ratio≥10) | ≤ 3 |
| CN1CCOC(CNC(=O)c2cccc(CNc3ncc(-c4ccnc(N)n4)c4c3CCO4)c2)C1 (single isomer, unassigned) [Example 34, 3-(((7-(2-Aminopyrimidin-4-yl)-2,3-dihydrofuro[3,2-c]pyridin-4-yl)amino)methyl)-N-((4-methylmorpholin-2-yl)methyl)benzamide] | ≤ 3 | *** (ratio≥10) | ≤ 3 |
| Nc1nccc(-c2cnc(NCc3cccc(C(=O)NC4CC4F)c3)c3c2OCC3)n1 (single isomer, unassigned) [Example 46, Trans 3-(((7-(2-Aminopyrimidin-4-yl)-2,3-dihydrofuro[3,2-c]pyridin-4-yl)amino)methyl)-N-(2-fluorocyclopropyl)benzamide] | ≤ 3 | *** (ratio≥10) | ≤ 3 |
| CCOCCNC(=O)c1cccc(CNc2ncc(-c3ccnc(N)n3)c3c2CCO3)c1 [Example 20, 3-(((7-(2-Aminopyrimidin-4-yl)-2,3-dihydrofuro[3,2-c]pyridin-4-yl)amino)methyl)-N-(2-ethoxyethyl)benzamide] | ≤ 3 | *** (ratio≥10) | ≤ 3 |
| CCCNC(=O)c1cccc(CNc2ncc(-c3ccnc(N)n3)c3c2CCO3)c1 [Example 40, 3-(((7-(2-Aminopyrimidin-4-yl)-2,3-dihydrofuro[3,2-c]pyridin-4-yl)amino)methyl)-N-propylbenzamide] | ≤ 3 | *** (ratio≥10) | ≤ 3 |
| Nc1nccc(-c2cnc(NCc3cccc(C(=O)NC4CN(C5COC5)C4)c3)c3c2OCC3)n1 [Example 24, 3-(((7-(2-aminopyrimidin-4-yl)-2,3-dihydrofuro[3,2-c]pyridin-4-yl)amino)methyl)-N-(1-(oxetan-3-yl)azetidin-3-yl)benzamide] | ≤ 3 | *** (ratio≥10) | ≤ 3 |
| CN1CCOC(CNC(=O)c2cccc(CNc3ncc(-c4ccnc(N)n4)c4c3CCO4)c2)C1 (single isomer, unassigned) [Example 35, 3-(((7-(2-Aminopyrimidin-4-yl)-2,3-dihydrofuro[3,2-c]pyridin-4-yl)amino)methyl)-N-((4-methylmorpholin-2-yl)methyl)benzamide] | ≤ 3 | *** (ratio≥10) | ≤ 3 |
| Nc1nccc(-c2cnc(NCc3cccc(C(=O)N[C@H]4C[C@@H](F)C4)c3)c3c2OCC3)n1 [Example 48, 3-(((7-(2-Aminopyrimidin-4-yl)-2,3-dihydrofuro[3,2-c]pyridin-4-yl)amino)methyl)-N-((1S,3S)-3-fluorocyclobutyl)benzamide] | ≤ 3 | ** (5≤ratio<10) | ≤ 3 |
